Data published in patent publication EP0559625B1, “Esters of L-carnitine and acyl L-carnitine endowed with muscle relaxant activityselective on gastrointestinal tract and pharmaceutical compositions containing same” (Sigma-Tau Industrie Farmaceutiche Riunite S.p.A., priority 1992, dated 1993).

Columns and labels:
[1] = target: sites associated to calcium channels labeled by ^3H-Nitrendipine; assay: Binding to Ca++ channel sites labelled by 3H-Nitrendipine in rat brain; conditions: rat brain cortex membranes; ^3H-Nitrendipine 0.5 nM, 60' at 30°C; inactive at 10^-5 M not tested higher; read-out: IC50 Uptake sites of Ca^++ channels labelled with ^3H-Nitrendipine
Description: (§1) The "binding" of the tested compounds to the sites associated to calcium channels labeled by ^3H-Nitrendipine, ^3H-Verapamil and ^3H-Diltiazem has been assayed in rat brain according to the method of Schoemaker H. et al. Eur. J. Pharmacol. 111, 273 (1985) and of Reynolds I.J. et al. Eur. J. Pharmacol. 95, 319 (1983).
(§2) Brain cortices are removed from decollated male CrI: CD (SD) BR rats weighing 250-300 g.
(§3) The tissues were homogenized in Tris-HCl buffer and centrifuged at 50000 x g for 10 minutes. The pellet was washed twice through a fresh buffer suspension and centrifuged at 50000 x g for 10 minutes.
(§4) After suspension of the precipitate in the incubation buffer the compounds under examination were added to the medium, starting from a concentration 10^-5 M. Incubation conditions were: ^3H-Nitrendipine (0.5 nM) x 60' at 30°C; ^3H-Verapamil (10 µM) x 20' at 37°C; and ^3H-d-cis Diltiazem (4 nM) x 60' at 30°C. Final volume was 1 ml. Incubation was stopped by rapid filtration under vacuum through GF/B (0.1% […]) fiber filters which were washed with cold incubation buffer (3 x 3 ml) using the system of filtration Brandel Cell Harvester. Filters were put in 8 ml of Optifluor (Packard) and the radioactivity bound to the membranes trapped by fibers counted by liquid scintillation spectrometer TRI-CARB 1900 CA (Packard). The counting efficiency was about 50%.
(§5) The percentage inhibition of the specific ^3H-ligand binding to its respective receptors was calculated for each concentration (mean of three incubates).
(§6) The competition curve, the slope of the curve and IC50^± standard deviation values (drug concentration that reduces specific ^3H-ligand binding to its respective receptors by 50% of its maximum value) were calculated by using the "Allfit" program (De Lean A. et al., Am. J. Physiol. 235, E97, 1978) running on an IBM 55-SH.

[2] = target: sites associated to calcium channels labeled by ^3H-Verapamil; assay: Binding to Ca++ channel sites labelled by 3H-Verapamil in rat brain; conditions: rat brain cortex membranes; ^3H-Verapamil (10 µM), 20' at 37°C; read-out: IC50 Uptake sites of Ca^++ channels labelled with ^3H-Verapamil
Description: as §1, §2, §3, §4, §5, §6

[3] = target: sites associated to calcium channels labeled by ^3H-Diltiazem; assay: Binding to Ca++ channel sites labelled by 3H-Diltiazem in rat brain; conditions: rat brain cortex membranes; ^3H-d-cis Diltiazem 4 nM, 60' at 30°C; read-out: IC50 Uptake sites of Ca^++ channels labelled with ^3H-Diltiazem
Description: as §1, §2, §3, §4, §5, §6

mice = assay: Assessment of behaviour and mortality in mice (Irwin's method); type: in vivo; conditions: for Death rate: dead/treated, 4 animals/dose; for Symptoms: n.e. = no effect, (*) = in connection with death rate only
Description: The assessment of normal behaviour in mice was carried out following S. Irwin's method, Psychopharmacologia 13, 222 (1968). This method allows alterations in some behavioural, neurophysiologic and neurovegetative parameters to be detected, which are directly observable by the researcher. The study was conducted using male CrI: (CD-I)(ICR)BR mice (Charles River - Italy) weighing 22-25 g, following oral administration of the compounds suspended in carboxymethylcellulose (0.5% by weight in H2O) to groups of 4 animals/dose.
The animals were continuously kept under observation for five hours following treatment and twice a day in the subsequent five days. Mortality was also observed during the overall test period. The initial dose was 1000 mg/kg per os; lower doses were administered in case of death or if the initial dose brought about an excessive response.

Rat portal vein = assay: Rat portal vein: contractions evoked by high K+ concentrations; conditions: at a concentration of 10 mg/ml
Text: The effect of the compound on the contractions evoked by high K^+ concentrations in the rat portal vein has been tested according to Shetty S.S. et al., Europ. J. Pharm. 141, 485 (1989).

[4] = system: conscious spontaneously hypertensive rats (SHR); assay: Effect on blood pressure and heart rate in conscious SHR; type: in vivo; conditions: oral 100 mg/kg, 1, 2 and 4 hours after administration
Description: The effect of the substance has been tested after oral administration of 100 mg/kg to conscious spontaneously hypertensive rats (SHR). No changes of blood pressure and heart rate were observed 1, 2 and 4 hours after the administration. The experimental procedure was run according to Yeer T.T. et al, Life Sciences 22, 359 (1978).

Q: Which IC50 [1] does the source give for `CCCCCCCCCCCOC(=O)C[C@H](C[N+](C)(C)C)OC(=O)C(C)C` [ST 712, Isobutyryl L-carnitine undecyl ester chloride] here?
A: 5.3 µM

Q: What about the IC50 [2] of the same compound?
A: 2.8 µM

Q: And the IC50 [3]?
A: 1.2 µM

Q: And the Death rate (mice; dose 1000 (mg/kg per os))?
A: 0/4

Q: What about the Symptoms (mice; dose 1000 (mg/kg per os)) of the same compound?
A: n.e.

Q: Which results are given for `CCCCCCCOC(=O)C[C@H](C[N+](C)(C)C)OC(=O)C(C)C` [ST 713, isobutyryl L-carnitine heptyl ester chloride]?
A: IC50 [1]: > 10 µM; IC50 [2]: 1.2 µM; IC50 [3]: 1.3 µM; Death rate (mice; dose 100 (mg/kg per os)): 0/4; Symptoms (mice; dose 100 (mg/kg per os)): n.e.; Death rate (mice; dose 300 (mg/kg per os)): 2/4; Symptoms (mice; dose 300 (mg/kg per os)): convulsions (*); Death rate (mice; dose 600 (mg/kg per os)): 3/4; Symptoms (mice; dose 600 (mg/kg per os)): convulsions (*); Death rate (mice; dose 1000 (mg/kg per os)): 4/4; Symptoms (mice; dose 1000 (mg/kg per os)): convulsions (*)

Q: `CCCCCCCOC(=O)C[C@H](C[N+](C)(C)C)OC(C)=O` [ST 904, acetyl L-carnitine heptyl ester chloride] was tested. Which IC50 [1] did it give?
A: > 10 µM

Q: And the IC50 [2]?
A: 3.2 µM

Q: What about the IC50 [3] of the same compound?
A: > 10 µM

Q: What about the Death rate (mice; dose 300 (mg/kg per os)) of the same compound?
A: 0/4

Q: What about the Symptoms (mice; dose 300 (mg/kg per os)) of the same compound?
A: n.e.

Q: And the Death rate (mice; dose 600 (mg/kg per os))?
A: 2/4

Q: What about the Symptoms (mice; dose 600 (mg/kg per os)) of the same compound?
A: convulsions (*)

Q: What about the Death rate (mice; dose 1000 (mg/kg per os)) of the same compound?
A: 4/4

Q: And the Symptoms (mice; dose 1000 (mg/kg per os))?
A: convulsions (*)

Q: `CCCCCCCCCCCOC(=O)C[C@H](C[N+](C)(C)C)OC(=O)CC(C)C` [ST 722, isovaleryl L-carnitine undecyl ester chloride] was tested. Which IC50 [1] did it give?
A: 1.6 µM

Q: And the IC50 [2]?
A: 0.38 µM

Q: What about the IC50 [3] of the same compound?
A: 1.4 µM

Q: And the Death rate (mice; dose 1000 (mg/kg per os))?
A: 0/4

Q: What about the Symptoms (mice; dose 1000 (mg/kg per os)) of the same compound?
A: salivation, diarrhea

Q: What about the “effect on the contractions evoked by high K^+ concentrations in the rat portal vein” value (Rat portal vein) of the same compound?
A: inactive

Q: What about the “changes of blood pressure” value [4] of the same compound?
A: No changes

Q: And the “changes of heart rate” value [4]?
A: No changes

Q: `CC(C)COC(=O)C[C@H](C[N+](C)(C)C)OC(=O)CC(C)C` [ST 684] was tested. Which IC50 [1] did it give?
A: > 10 µM

Q: And the IC50 [2]?
A: 1.6 µM

Q: What about the IC50 [3] of the same compound?
A: 7.8 µM

Q: And the Death rate (mice; dose 1000 (mg/kg per os))?
A: 0/4

Q: And the Symptoms (mice; dose 1000 (mg/kg per os))?
A: n.e.

Q: How did the IC50 [1] turn out when `CC(C)COC(=O)C[C@H](C[N+](C)(C)C)OC(=O)C(C)C` [ST 305] was run?
A: 33 µM

Q: And the IC50 [2]?
A: 3.5 µM

Q: What about the IC50 [3] of the same compound?
A: > 10 µM

Q: What about the Death rate (mice; dose 1000 (mg/kg per os)) of the same compound?
A: 0/4

Q: What about the Symptoms (mice; dose 1000 (mg/kg per os)) of the same compound?
A: n.e.

Q: With `CCCCOC(=O)C[C@H](C[N+](C)(C)C)OC(=O)CC(C)C` [ST 683] as the compound, how does the IC50 [1] read?
A: > 10 µM

Q: What about the IC50 [2] of the same compound?
A: 2.4 µM

Q: And the IC50 [3]?
A: 15 µM

Q: And the Death rate (mice; dose 300 (mg/kg per os))?
A: 0/4

Q: What about the Symptoms (mice; dose 300 (mg/kg per os)) of the same compound?
A: n.e.

Q: What about the Death rate (mice; dose 600 (mg/kg per os)) of the same compound?
A: 2/4

Q: What about the Symptoms (mice; dose 600 (mg/kg per os)) of the same compound?
A: convulsions (*)

Q: And the Death rate (mice; dose 1000 (mg/kg per os))?
A: 4/4

Q: What about the Symptoms (mice; dose 1000 (mg/kg per os)) of the same compound?
A: convulsions (*)

Q: For `CCCCCCCOC(=O)C[C@H](C[N+](C)(C)C)OC(=O)CC(C)C` [ST 697], which IC50 [1] is on record?
A: > 10 µM

Q: What about the IC50 [2] of the same compound?
A: 1.5 µM

Q: And the IC50 [3]?
A: 0.5 µM

Q: And the Death rate (mice; dose 100 (mg/kg per os))?
A: 0/4

Q: And the Symptoms (mice; dose 100 (mg/kg per os))?
A: n.e.

Q: And the Death rate (mice; dose 300 (mg/kg per os))?
A: 1/4

Q: And the Symptoms (mice; dose 300 (mg/kg per os))?
A: convulsions (*)

Q: And the Death rate (mice; dose 600 (mg/kg per os))?
A: 2/4

Q: And the Symptoms (mice; dose 600 (mg/kg per os))?
A: convulsions (*)

Q: And the Death rate (mice; dose 1000 (mg/kg per os))?
A: 4/4

Q: And the Symptoms (mice; dose 1000 (mg/kg per os))?
A: convulsions (*)
